Measurements: US10570168B2, “2′ and/or 5′ amino-acid ester phosphoramidate 3′-deoxy adenosine derivatives as anti- cancer compounds” (NuCana plc, priority 2014, dated 2020)
pIC50: −log10 of the molar value.

Key:
Type in all cases: cell-based
[1] = tested on: CCRFCEM; assay: Solid tumour and haematological malignancy assay (CellTiterGlo); settings: Homo sapiens, CCRF-CEM, 72 h
Procedure, shortened: (§1)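 Viability measured by CellTiterGlo after cells grew with test compound for 72 hr; DMSO kept at 0.5% final.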

[2] = tested on: HEL92.1.7; assay: as above; settings: Homo sapiens, HEL 92.1.7, 72 h
Procedure, shortened: as §1

[3] = tested on: MCF7; assay: as above; settings: Homo sapiens, MCF7, 72 h
Procedure, shortened: as §1

[4] = tested on: HL-60; assay: as above; settings: Homo sapiens, HL-60, 72 h
Procedure, shortened: as §1

[5] = tested on: MiaPaCa-2; assay: as above; settings: Homo sapiens, MIA PaCa-2, 72 h
Procedure, shortened: as §1

[6] = tested on: K562; assay: as above; settings: Homo sapiens, K562, 72 h
Procedure, shortened: as §1

[7] = tested on: HepG2; assay: as above; settings: Homo sapiens, HepG2, 72 h
Procedure, shortened: as §1

[8] = tested on: HT29; assay: as above; settings: Homo sapiens, HT-29, 72 h
Procedure, shortened: as §1

[9] = tested on: KG-1; assay: as above; settings: Homo sapiens, KG-1, 72 h
Procedure, shortened: as §1

[10] = tested on: HL-60; assay: CellTiterGlo viability assay, initial screening; settings: Homo sapiens, HL-60, 72 h, read-out: IC50 (relative IC50)
Procedure, shortened: (§2)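 Cells were treated in duplicate for 72 hr under standard growth conditions with a 9-point, 3.16-fold compound titration (lowest final 19.9 nM, 0.5% DMSO final). Viability was then read by CellTiter-Glo.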

[11] = tested on: MOLT-4; assay: CellTiterGlo viability assay, initial screening; settings: Homo sapiens, MOLT-4, 72 h, read-out: IC50 (relative IC50)
Procedure, shortened: as §2

[12] = tested on: K562; assay: CellTiterGlo viability assay, initial screening; settings: Homo sapiens, K562, 72 h, read-out: IC50 (relative IC50)
Procedure, shortened: as §2

[13] = tested on: HepG2; assay: CellTiterGlo viability assay, initial screening; settings: Homo sapiens, HepG2, 72 h, read-out: IC50 (relative IC50)
Procedure, shortened: as §2

[14] = tested on: MCF-7; assay: CellTiterGlo viability assay, initial screening; settings: Homo sapiens, MCF7, 72 h, read-out: IC50 (relative IC50)
Procedure, shortened: as §2

[15] = tested on: KG-1; assay: CellTiterGlo viability assay, initial screening; settings: Homo sapiens, KG-1, 72 h, read-out: IC50 (relative IC50)
Procedure, shortened: as §2

[16] = tested on: Z138; assay: Solid tumour and haematological malignancy assay (CellTiterGlo); settings: Homo sapiens, Z-138, 72 h
Procedure, shortened: (§3)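 Cells were treated in duplicate with a 9-point, 3.16-fold dilution series for about 72 h under standard growth conditions. Final concentrations ran from […] to 19.9 nM, with 0.5% DMSO. Viability was read by CellTiter-Glo luminescence.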

[17] = tested on: BxPC-3; assay: as above; settings: Homo sapiens, BXPC-3, 72 h, read-out: IC50 (absolute IC50)
Procedure, shortened: as §3

[18] = tested on: NCI-H929; assay: as above; settings: Homo sapiens, NCI-H929, 72 h
Procedure, shortened: as §3

[19] = tested on: MOLT-4; assay: as above; settings: Homo sapiens, MOLT-4, 72 h
Procedure, shortened: as §3

[20] = tested on: Jurkat; assay: as above; settings: Homo sapiens, 72 h, read-out: IC50 (absolute IC50)
Procedure, shortened: as §3

SMILES: C[C@H](NP(=O)(OC[C@@H]1CC(O)[C@H](n2cnc3c(N)ncnc32)O1)Oc1ccccc1)C(=O)OCc1ccccc1 (stereo partly drawn) [Compound A, 3′-deoxyadenosine-5′-O-[phenyl(benzyloxy-L-alaninyl)] phosphate]
- pIC50 ([1]; read-out: IC50 (absolute IC50)): 5.30 to 7.00
- Emax ([1]; read-out: MI %): 100%
- pIC50 ([2]; read-out: IC50 (absolute IC50)): 4.82 to 5.30
- Emax ([2]; read-out: MI %): 100%
- pIC50 ([3]; read-out: IC50 (absolute IC50)): 5.30 to 7.00
- Emax ([3]; read-out: MI %): 99%
- pIC50 ([4]; read-out: IC50 (absolute IC50)): 4.82 to 5.30
- Emax ([4]; read-out: MI %): 99%
- pIC50 ([5]; read-out: IC50 (absolute IC50)): 4.82 to 5.30
- Emax ([5]; read-out: MI %): 96%
- pIC50 ([6]; read-out: IC50 (absolute IC50)): 5.30 to 7.00
- Emax ([6]; read-out: MI %): 96%
- pIC50 ([7]; read-out: IC50 (absolute IC50)): 4.00 to 4.82
- Emax ([7]; read-out: MI %): 75%
- pIC50 ([8]; read-out: IC50 (absolute IC50)): 4.82 to 5.30
- Emax ([8]; read-out: MI %): 93%
- pIC50 ([9]; read-out: IC50 (absolute IC50)): 4.00 to 4.82
- Emax ([9]; read-out: MI %): 100%
- pIC50 [10]: 4.82 to 5.30
- pIC50 [11]: 5.30 to 7.00
- pIC50 [12]: 5.30 to 7.00
- pIC50 [13]: 4.82 to 5.30
- pIC50 [14]: 5.30 to 7.00
- pIC50 [15]: 4.82 to 5.30
- pIC50 ([16]; read-out: IC50 (absolute IC50)): 4.00 to 4.82
- Emax ([16]; read-out: MI %): 95%
- pIC50 [17]: 4.00 to 4.82
- pIC50 ([18]; read-out: IC50 (absolute IC50)): 4.82 to 5.30
- Emax ([18]; read-out: MI %): 100%
- pIC50 ([19]; read-out: IC50 (absolute IC50)): 5.30 to 7.00
- Emax ([19]; read-out: MI %): 98%
- pIC50 [20]: 5.30 to 7.00
